Test results published in PMC12238723, “Phase I Clinical Trial of CVL218, a Novel PARP1/2 Inhibitor, in Patients with Advanced Solid Tumors” (MedComm, 2025).

Test system: patients with advanced solid tumors
Assay: Dose-limiting toxicity, MTD and recommended dose
Assay type: in vivo
Experimental: CVL218 was administered orally, and this dose‐escalation trial included nine dose levels: 100 mg QD (50 mg BID), 200 mg QD (100 mg BID), 400 mg QD (200 mg BID), 700 mg QD (350 mg BID), 1000 mg QD (500 mg BID), 1200 mg QD (600 mg BID), 1400 mg QD (700 mg BID), 1700 mg QD (850 mg BID), and 2000 mg QD (1000 mg BID). Patients enrolled in the study received a single oral dose on the first day, followed by continuous multiple dosing (twice a day taking 12 h apart) after 72 h, with the treatment cycle lasting 4 weeks. The period during which patients received a single dose is designated as cycle 0 (C0), lasting 72 h. After this period, patients begin multiple dosing, referred to as cycle 1 (C1). An initial accelerated titration design was employed for the three lowest dose groups, and the “3+3” design was applied starting with the 300 mg BID cohort.
The primary objectives were to assess safety and tolerability as well as to determine the MTD, DLT, and dose recommended for further study. DLT was defined as any of the following events occurring during cycle 0 (including 72 h wash‐out period after a single dose) and cycle 1 per Common Terminology Criteria for Adverse Events (CTCAE) version 5.0: grade 4 anemia; grade 4 neutropenia; grade 3 neutropenia with fever ≥38.5°C; grade 4 thrombocytopenia; grade 3 thrombocytopenia associated with bleeding; grade ≥2 neurotoxicity; any other grade ≥3 nonhematological toxicities (excluding alopecia). The secondary objectives were to assess the PK and preliminary efficacy of CVL218.

CNCc1ccc(-c2cc3cc(F)cc(C(N)=O)c3o2)cc1.Cl [CVL218]
1 (3.8) n (%): DLT: Renal failure (Overall (N=26))
2 (7.7) n (%): DLT: Increased creatinine (Overall (N=26))
700 mg BID: recommended dose for further study (oral) | maximum tolerated dose (MTD) (oral, patients with advanced solid tumors)
0 n (%): Any DLT (50 mg BID (N = 1)) | DLT: Increased creatinine (50 mg BID (N = 1)) | DLT: Renal failure (50 mg BID (N = 1)) | Any DLT (100 mg BID (N = 1)) | DLT: Increased creatinine (100 mg BID (N = 1)) | DLT: Renal failure (100 mg BID (N = 1)) | Any DLT (200 mg BID (N = 1)) | DLT: Increased creatinine (200 mg BID (N = 1)) | DLT: Renal failure (200 mg BID (N = 1)) | Any DLT (350 mg BID (N = 4)) | DLT: Increased creatinine (350 mg BID (N = 4)) | DLT: Renal failure (350 mg BID (N = 4)) | Any DLT (500 mg BID (N = 4)) | DLT: Increased creatinine (500 mg BID (N = 4)) | DLT: Renal failure (500 mg BID (N = 4)) | Any DLT (600mg BID (N=4)) | DLT: Increased creatinine (600mg BID (N=4)) | DLT: Renal failure (600mg BID (N=4)) | DLT: Increased creatinine (700 mg BID (N = 6)) | DLT: Renal failure (850mg BID (N=5))
3 (11.5) n (%): Any DLT (Overall (N=26))
1 (16.7) n (%): Any DLT (700 mg BID (N = 6)) | DLT: Renal failure (700 mg BID (N = 6))
2 (40.0) n (%): Any DLT (850mg BID (N=5)) | DLT: Increased creatinine (850mg BID (N=5))
